Where two headings read alike, the source gives them in different places.
Columns and labels:
caspase-3 = experiment: Caspase-3 activating action of β-amyloid and its suppression (Ac-DEVD-AMC substrate); format: cell-based, rat; conditions: FIG. 7
Protocol: PC12 cells that had been cultured almost similarly to Example 4 were cultured in a 24-well plate (2×10^5 cells/well). 10^−5 M β-amyloid was added to the plate. At this time, cAMP derivative (10^−4 M) and neuropeptide PACAP (10^−9 M) were added respectively, and then the action of activating caspase-3, an apoptosis-related enzyme, was examined. The caspase-3 activating action was examined using Ac-DEVD-AMC, a caspase-3 specific substrate. […] Further, by the addition of neuropeptide PACAP, an incomplete, approximately 50% suppressive effect was shown. […] Taking into consideration that this suppressive action is not complete, other action mechanisms may also be involved.

PC12 cells [1] = experiment: Neuroprotective action against β-amyloid, viable cell count / survival rate by WST-8 method; format: cell-based, rat; parameters: key to Neuroprotective action: +, P < 0.05 when compared with the no neuropeptide-added group; conditions: for neuroprotective action against cell death by β-amyloid (cell survival rate): co-existing with β-amyloid, PACAP27 10^−9 M; for relationship between concentration and neuroprotective action against β-amyloid: neuropeptides at various concentrations
Protocol: An experiment was performed similarly to Example 5, and then the neuroprotective action against cell death by β-amyloid of the following PACAP-related neuropeptides (peptides 1, 2, 4, 5, 7, 8, 15, 16, 17, 19, 21, 26, 27, 28, 29, 30, 31, 32, 33, 34, 35, 36, 37, 38 and 39) and VIP-related neuropeptides (peptides 3, 9, 10, 11, 12, 13, 14, 18, 20, 22, 23, 24 and 25) was confirmed. Specifically, amyloid (50 μM) and each of the various PACAP-related neuropeptides and VIP-related neuropeptides were added to the cultured PC12 cells. The number of […] calculated by the WST-8 method, so that comparison and examination was performed for the neuroprotective action of these various peptides against amyloid. If the neuropeptides had neuroprotective action, a clear difference in viable cell count can be observed between cases in which neuropeptides were added and cases in which neuropeptides were not added. In PC12 cells added with each of the various neuropeptides, a case wherein a higher cell survival rate (P<0.05) was observed compared with groups in which neuropeptides had not been added, was determined as having neuroprotective action. The results are shown in Table 1 and Table 2. β-amyloid was added to PC12 cells that had been cultured similarly to Example 5. At this time, neuropeptides PACAP27, VIP and humanin, and a cell-permeable cAMP derivative were allowed to respectively co-exist, so that the effect of these neuropeptides against cell death by β-amyloid was confirmed. Cell death was examined by evaluating cell count using the WST-8 method, and then by calculating cell survival rate. […] In the presence of β-amyloid, approximately 70% of the cells died. […] The neuroprotective action of humanin, a recently found human-derived neuroprotective substance (Proc Natl Acad Sci USA (2001) 98 (11) 6336-6341), was also examined. […] At this time, neuropeptides at various concentrations were allowed to co-exist, so that the relationship between the neuroprotective action and the concentration was investigated. Cells were calculated by the WST-8 method, and then the extent to which cell death by β-amyloid could be attenuated was expressed numerically.

PC12 cells [2] = format: cell-based, rat
PC12 cells [3] = system: PC12 cells
PC12 cells [4] = experiment: Cell death by β-amyloid monitored by lactate dehydrogenase release; format: cell-based, rat; conditions: 48 hours, FIG. 3

## CCCC(=O)Nc1ncnc2c1ncn2[C@@H]1O[C@@H]2COP(=O)(O)O[C@H]2[C@H]1OC(=O)CCC [dibutyryl-cAMP, reference compound]
caspase-3; 10^−5 M β-amyloid, cAMP derivative 10^−4 M
  effect on caspase-3 activation by β-amyloid: significantly attenuated
PC12 cells [1]; FIG. 5
  neuroprotective action against cell death by β-amyloid (cell survival rate): cell death was very strongly suppressed

## Pituitary Adenylate Cyclase Activating Polypeptide [PACAP]
PC12 cells [2]; 50 μM abnormal prion (106-126), neuropeptides at various concentrations, FIG. 2
  degree of neuroprotective action against abnormal prion (106-126): even at an extremely low concentrations, PACAP showed a certain degree of neuroprotective action
caspase-3; 10^−5 M β-amyloid, PACAP 10^−9 M
  suppressive effect on caspase-3 activation by β-amyloid: approximately 50%
PC12 cells [1]; β-amyloid, FIG. 6
  neuroprotective action relative to that of VIP: at least 1×10^4 fold
  relationship between concentration and neuroprotective action against β-amyloid: showed neuroprotective action even at an extremely low concentration
PC12 cells [1]; β-amyloid, various concentrations, FIG. 6
  concentration at which the neuroprotective effect was strongest: 10^−9 to 10^−13 M

## Prion (106-126)
PC12 cells [3]
  cell death (lactate dehydrogenase released to the medium): cell death occurs depending on the concentration

## VIP (HSDAVFTDNYTRLRKQMAVKKYLNSILN) [Peptide 3]
PC12 cells [2]
  degree of neuroprotective action against abnormal prion (106-126): showed neuroprotective action at concentrations higher than that of PACAP
PC12 cells [1]; VIP-related neuropeptide 10^−7 M, amyloid (50 μM), cell survival rate vs no peptide
  Neuroprotective action: +
PC12 cells [1]; FIG. 5
  neuroprotective action against cell death by β-amyloid (cell survival rate): showed neuroprotective action against β-amyloid although the effect was weaker than that of PACAP27
PC12 cells [1]; β-amyloid, FIG. 6
  relationship between concentration and neuroprotective action against β-amyloid: showed strong neuroprotective action at relatively high concentrations

## β-amyloid 1-42
PC12 cells [4]; 0.2 μM insulin-containing serum-free DMEM
  cell death by β-amyloid vs control group: significant cell death
PC12 cells [4]; 0.25% horse serum and 0.25% newborn calf serum-containing DMEM
  cell death by β-amyloid vs control group: significant cell death
PC12 cells [4]; 5% horse serum and 5% newborn calf serum-containing DMEM
  cell death by β-amyloid vs control group: no cell death
caspase-3; addition of 10^−5 M β-amyloid
  activity of caspase-3: improved
PC12 cells [1]; β-amyloid alone, WST-8, FIG. 5
  cells died in the presence of β-amyloid: approximately 70%
